From patent US6194451A, “Matrix metalloproteinase inhibitors” (Pharmacia & Upjohn S.p.A., priority 1997, dated 2001) come the findings set out here.

One series is described as follows: Aqueous solubility. Type of series: physicochemical. The settings on record: water, pH 7.0, 25° C. As to the method: Further, several compounds of formula (I), in particular when R2 is hydroxy, and when R1 is hydroxymethyl, have enhanced water solubility as compared to the vast majority of MMP inhibitors of the prior art. An aqueous solubility threshold, which may vary widely but can be roughly set in the range of 1-10 mg/mL, makes systemic administration easy, and more than often is essential to good oral bioavailability.

The test system of series [1] is release of TNF from THP-1 cells. Kind of series: Cellular Assay (Protocol B): inhibition of release of TNF from LPS-stimulated THP-1 cells. Type of series: cell-based. The settings on record: Homo sapiens, LPS 5 microg/mL, 4 h. Here is the method:
For example, the following cell-based assay was used to assess such activity:
THP-1 cells, cultured in RPMI 1640 supplemented with 10% FCS, were distributed into 24-well plates, 1 mL of a suspension of 1×10^6 cells/mL in each well. Compounds to be tested, dissolved in DMSO and diluted with the culture medium (1% final DMSO concentration) were added. Plates were incubated for 30 min at 37° C. in 5% CO2, and lipopolisaccharide (LPS 0111:B4, 5 microg/mL) was added as a stimulant. After a further 4 h incubation, cells were harvested, centrifuged (2,000 rpm, 7 min), and the surnatant was collected and freezed (-20° C.) until analysis. Analysis was run by classical ELISA methodology (monoclonal anti-TNF-a antibody, rabbit capture policlonal antibody, and peroxidated anti-rabbit antibody).

Series [2] concerns the target T1, MMP-3 (human stromelysin-1) (Homo sapiens, UniProt P08254).
T1 construct: host or cells: E. coli or baculovirus-infected Sf9 insect cells
Kind of series: Biochemical Assay (Protocol A): inhibition of human stromelysin-1, fluorimetric peptide substrate. Conditions: MMP-3, pH 7.4, 37° C. The text has this: (§1) As mentioned above, although low molecular weight MMP inhibitors, including hydroxamates of general formula (A), are already known, there is a strong need for better and diversified molecules for their use in medicine, that is in particular in the control or prevention of degenerative joint diseases such as rheumatoid arthritis and osteoarthritis, or in the management of multiple sclerosis, or in the treatment of invasive tumors. […] For example, the following protocol was used to assess the biochemical activity of compounds of formula (I) against MMP-1, MMP-2, and MMP-3 (respectively, human interstitial collagenase, gelatinase A, and stromelysin-1).
(§2) Human gelatinase-A (MMP-2) was obtained as pro-enzyme (72 kDa) and was activated with 1 mM 4-aminophenylmercuric acetate for 30 min at 37° C. immediately prior to use. Human stromelysin-1 (MMP-3) was obtained as a recombinant pro-enzyme isolated either from E. coli or from baculovirus infected Sf9 insect cells and activated either by heat (1 h, 55° C.) or by 5 mg/l trypsin (30 min, 37° C.) before addition of soybean trypsin inhibitor, finally removed by centrifugation.
(§3) All enzyme assays to determine values of the enzyme-inhibitor dissociation constants were performed using the peptide substrate (7-methoxycoumarin-4-yl)Acetyl-Pro-Leu-Gly-Leu-(3-[2,4-dinitrophenyl]-L-2,3-diaminopropionyl)-Ala-Arg-NH2 (Mca-Pro-Leu-Gly-Leu-Dpa-Ala-Arg--NH2) (C. G. Knight et al., FEBS Lett. 296:263-266, 1992). The enzymes cleave at the Gly-Leu bond removing the internally quenching Dpa group. The release of the highly fluorescent peptide Mca-Pro-Leu was followed fluorimetrically setting the excitation wavelength at 326 nm (bandwidth 5 nm) and the emission at 392 nm (bandwidth 20 nm).
(§4) Continuous fluorescence assay was carried out using a Perkin Elmer LS-50 Fluorescence Spectrophotometer fitted with a thermostatted four position stirring cell changer. Inhibitors were dissolved in the assay buffer ([…] Tris/HCl pH 7.4 containing 0.15 M NaCl, 10 mM CaCl2, 0.01 mM ZnCl2 and 0.05% Brij 35) thermostatted at 37° C. The reaction was started by the addition of substrate ([…]), followed by the addition of the enzyme (e.g. 1.0 nM collagenase, 0.04 nM gelatinase, or 3.0 nM stromelysin) and the increase in fluorescence was monitored over 30 min. The run was repeated at different concentrations of inhibitors in the range 0.1-10000 nM and data at inhibitor concentration in the region if their enzyme-inhibitor dissociation constants were used for calculation.
(§5) Substrate consumption was within 5% of the initial concentration and data outside this range were discarded. The Michaelis constants (Km) for the enzyme-substrate complexes is […] or greater (C. G. Knight et al., reference above), so that the factor (1+S/Km) can be approximated to unity without appreciable error.

Series [3] concerns the target T2, MMP-2 (human gelatinase A) (Homo sapiens, UniProt P08253).
T2 sequence (P08253 110-660): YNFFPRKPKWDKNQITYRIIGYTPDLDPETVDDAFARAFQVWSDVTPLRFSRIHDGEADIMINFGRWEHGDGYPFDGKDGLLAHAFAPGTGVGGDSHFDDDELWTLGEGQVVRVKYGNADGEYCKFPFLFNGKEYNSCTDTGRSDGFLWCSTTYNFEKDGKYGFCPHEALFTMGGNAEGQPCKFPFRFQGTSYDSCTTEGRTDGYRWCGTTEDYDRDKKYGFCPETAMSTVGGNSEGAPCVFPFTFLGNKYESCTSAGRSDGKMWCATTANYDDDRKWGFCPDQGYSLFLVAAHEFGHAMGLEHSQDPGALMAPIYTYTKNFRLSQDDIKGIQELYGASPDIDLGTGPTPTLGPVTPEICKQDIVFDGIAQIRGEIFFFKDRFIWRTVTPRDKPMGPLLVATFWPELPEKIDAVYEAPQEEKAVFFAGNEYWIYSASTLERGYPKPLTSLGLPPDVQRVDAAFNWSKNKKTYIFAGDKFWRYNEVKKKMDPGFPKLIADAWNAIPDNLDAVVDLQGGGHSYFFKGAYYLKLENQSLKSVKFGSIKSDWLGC
Briefly: Biochemical Assay (Protocol A): inhibition of human gelatinase A, fluorimetric peptide substrate. The settings on record: MMP-2, pH 7.4, 37° C.
Text: as §1, §2, §3, §4, §5

T1 sequence (P08254 100-477): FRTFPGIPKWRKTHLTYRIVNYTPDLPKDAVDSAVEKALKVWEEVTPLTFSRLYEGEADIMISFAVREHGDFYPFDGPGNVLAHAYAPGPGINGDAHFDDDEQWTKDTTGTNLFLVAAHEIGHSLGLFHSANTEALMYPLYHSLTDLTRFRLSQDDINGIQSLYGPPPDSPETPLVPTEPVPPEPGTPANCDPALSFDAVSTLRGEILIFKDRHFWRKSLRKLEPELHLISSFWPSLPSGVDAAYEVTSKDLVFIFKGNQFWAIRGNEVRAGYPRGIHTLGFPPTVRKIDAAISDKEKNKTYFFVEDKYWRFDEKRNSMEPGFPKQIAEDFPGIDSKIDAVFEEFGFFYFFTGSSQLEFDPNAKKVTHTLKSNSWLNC

In the case of `CNC(=O)[C@@H](NC(=O)[C@H](CC(C)C)[C@](O)(CO)C(=O)NO)C(C)(C)C` [Example 3], the solubility in “Aqueous solubility” was more than 15 mg/mL. For the same compound, the IC50 in series [1] amounted to 8100 nM. Further, the figures for the Ki in series [2] and in series [3] were 150 nM and 9.2 nM, respectively.
